Among the test systems are XF 498 CNS; LXFL 529 NSCLC; DLD-1 colon; SNB-78 CNS; MCF7 breast; T-47D breast; MDA-MB-435; HS 578T breast; PC-3 prostate.
What all share (experiment): inhibition of tumour cell growth, NCI panel, 48 h

“And” between values parts separate entries of the source, which are not always exact repeats. Equal values may be shown once.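 Tested at 5 concentrations; 48 h exposure; 96-well plates; endpoints linearly interpolated, else capped at highest concentration. The concentration for 50% growth inhibition is given as GI50. At the TGI there is no net growth.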 Where only a bound is given, the exact number is not on record here.

For the compound `COc1ccc(Nc2nc3c(N)cc(C(F)(F)F)cc3nc2-c2ccccc2)cc1`, the TGI with XF 498 CNS, in the assay on LXFL 529 NSCLC, in the assay on DLD-1 colon and with SNB-78 CNS was over 100 µM in each case.
Regarding `O=C(NCCS(=O)(=O)N1C(=O)C2CCCN2C(=O)[C@@H]1Cc1ccccc1)OCc1ccccc1` (stereo partly specified), the TGI with XF 498 CNS is 11 µM; in the assay on LXFL 529 NSCLC, over 100 µM; in the assay with DLD-1 colon, over 100 µM; in the assay on SNB-78 CNS, over 100 µM.
`Clc1ccc(C2=NN(c3ccccc3)C3c4cc(Br)ccc4OCC23)cc1` (stereo unspecified): the TGI in the assay on XF 498 CNS, in the assay on LXFL 529 NSCLC, with DLD-1 colon and with SNB-78 CNS was over 100 µM throughout.
Turning to `C=C1C(=O)C23C(O)C1CCC2C12CO[C@]3(O)[C@@H](O)C1C(C)(C)CCC2O` (stereo partly specified), the TGI was determined as 5.24 µM in the assay with XF 498 CNS, 6.03 µM in the assay on LXFL 529 NSCLC, 33.8 µM with DLD-1 colon and 32.8 µM with SNB-78 CNS.
With `CCN1CCC(O)(c2ccccc2)C(C(=O)c2ccccc2)C1` (stereo unspecified), the TGI was determined as 29.9 µM with XF 498 CNS, 29.4 µM in the assay with LXFL 529 NSCLC, 37 µM in the assay on DLD-1 colon and 54.1 µM in the assay with SNB-78 CNS.
Consider `Fc1cccc(C=NC23CC4CC(CC(C4)C2)C3)c1`, for which the TGI with XF 498 CNS, in the assay with LXFL 529 NSCLC, with DLD-1 colon and in the assay on SNB-78 CNS was over 100 µM in each case.
With `CN(C)CC1CCCC(CN(C)C)C1=O` (stereo unspecified), the TGI is 3.69 µM with XF 498 CNS; 6 µM and > 41.7 µM with MCF7 breast; 4.23 µM and 3.38 µM in the assay on T-47D breast; 39.1 µM and 23.8 µM with MDA-MB-435; > 100 µM and 80.3 µM in the assay with HS 578T breast; 0.998 µM in the assay with LXFL 529 NSCLC. In addition, the TGI is 33.4 µM and 16.9 µM with PC-3 prostate; 4.14 µM with DLD-1 colon; 10.3 µM in the assay on SNB-78 CNS. Besides, the GI50 in the assay with MCF7 breast is 0.575 µM and 3.45 µM; with MDA-MB-435, 19.6 µM and 8.54 µM; in the assay with HS 578T breast, 3.26 µM and 26.5 µM; in the assay on PC-3 prostate, 18.7 µM and 4.98 µM.
Regarding `COc1cc(C2c3cc4c(cc3[C@@H](OCCN)[C@H]3COC(=O)C23)OCO4)cc(OC)c1O` (stereo partly specified), the TGI was 0.489 µM with XF 498 CNS, 7.75 µM in the assay on LXFL 529 NSCLC, 6.76 µM in the assay with DLD-1 colon and over 58.9 µM in the assay on SNB-78 CNS.
In the case of `CCOC(=O)C1=C(O)CSC1=Nc1ccc(N=C2SCC(O)=C2C(=O)OCC)cc1`, the TGI in the assay with XF 498 CNS is 42 µM; in the assay on LXFL 529 NSCLC, 57.9 µM; in the assay on DLD-1 colon, 50.4 µM; with SNB-78 CNS it was over 100 µM.
For `CCN1N=CSC12C(=O)N(c1ccccc1)C(=O)N2c1ccccc1` (stereo unspecified), the TGI with XF 498 CNS, in the assay on LXFL 529 NSCLC, in the assay with DLD-1 colon and in the assay on SNB-78 CNS was over 100 µM each time.
On to `COc1ccc(C(=O)Nc2ccccc2)cc1[N+](=O)[O-]`, for which the TGI in the assay on XF 498 CNS, in the assay with LXFL 529 NSCLC, in the assay with DLD-1 colon and in the assay with SNB-78 CNS was over 100 µM throughout.
Take `Nc1ncn([C@@H]2C=C(CO)C(O)C2O)c(=O)n1` (stereo partly specified): the TGI with XF 498 CNS, in the assay with LXFL 529 NSCLC, in the assay with DLD-1 colon and with SNB-78 CNS was over 100 µM each time.
Regarding `O=C1/C(=C/c2ccccc2Cl)COc2ccccc21`, the TGI with XF 498 CNS came to 29.2 µM; with LXFL 529 NSCLC, 31.6 µM; in the assay with DLD-1 colon it was 29.4 µM; with SNB-78 CNS, 41.3 µM.
For `Cc1ccc(C)c(NC(=O)CCC(=O)CC(=O)C(C)(C)C)c1`, the TGI in the assay with XF 498 CNS, in the assay on LXFL 529 NSCLC, in the assay on DLD-1 colon and with SNB-78 CNS was over 100 µM in each case.
Regarding `COC(=O)C1(c2ccc(OC)cc2)NC(c2ccccc2)C2C(=O)N(c3ccc(OC)cc3)C(=O)C21` (stereo unspecified), the TGI with XF 498 CNS, in the assay with LXFL 529 NSCLC, in the assay with DLD-1 colon and with SNB-78 CNS was over 100 µM each time.
For `COc1ccc(Br)c(CCCCC(=O)O)c1`, the TGI in the assay with XF 498 CNS, in the assay on LXFL 529 NSCLC, with DLD-1 colon and with SNB-78 CNS was over 100 µM each time.
For the compound `COC1C2c3ccccc3C(C#N)(Cc3ccc4c(c32)OCO4)N1C(=O)c1ccccc1` (stereo unspecified), the TGI was 98.1 µM in the assay on XF 498 CNS, over 100 µM with LXFL 529 NSCLC, over 100 µM with DLD-1 colon and over 100 µM in the assay on SNB-78 CNS.
On to `Cc1cc2c(C)nn(Cc3ccc(Cl)cc3Cl)c2c(C#N)c1C`, for which the TGI in the assay with XF 498 CNS, in the assay on LXFL 529 NSCLC, in the assay with DLD-1 colon and in the assay on SNB-78 CNS was over 100 µM throughout.

The values are drawn from PubChem BioAssay (NCI).
